From the supplement of paper PMC11061612

Columns and labels:
Assay in all cases: combination Emax (second highest fraction inhibited in the dose matrix, 72 h); higher = more inhibition; extreme values may be limits of the assay
[1] = tested on: TK (B-Cell Non-Hodgkin's Lymphoma)
Procedure, shortened: (§1)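 After 24 hours at 37°C and 5% CO2 in 1536-well plates, cells in DMEM/F12 or RPMI plus 10% FBS received two-drug dose matrices for 72 hours. Viability came from CellTiter-Glo 2.0 luminescence and was scaled as inhibition, anchored at 0 by vehicle wells and at 1 by blank wells. Combination Emax is taken as the second-highest inhibition in the matrix, and Bliss excess as the observed combination effect less EA + EB − EA·EB, with EA and EB the single-agent effects.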

[2] = tested on: JJN-3 (Plasma Cell Myeloma)
Procedure, shortened: as §1

[3] = tested on: OCI-M1 (Acute Myeloid Leukemia)
Procedure, shortened: as §1

[4] = tested on: IGROV-1 (Ovarian Carcinoma)
Procedure, shortened: as §1

[5] = tested on: C2BBe1 (Colorectal Carcinoma)
Procedure, shortened: as §1

[6] = tested on: NCI-H1048 (Small Cell Lung Carcinoma)
Procedure, shortened: as §1

[7] = tested on: NCI-H2009 (Lung Adenocarcinoma)
Procedure, shortened: as §1

GCIY (Gastric Carcinoma) = tested on: GCIY (Gastric Carcinoma)
Procedure, shortened: as §1

[8] = tested on: RS4-11 (B-Lymphoblastic Leukemia)
Procedure, shortened: as §1

[9] = tested on: L-363 (Plasma Cell Myeloma)
Procedure, shortened: as §1

[10] = tested on: ATN-1 (T-Lymphoblastic Leukemia)
Procedure, shortened: as §1

[11] = tested on: NCI-H1975 (Lung Adenocarcinoma)
Procedure, shortened: as §1

[12] = tested on: MDA-MB-175-VII (Breast Carcinoma)
Procedure, shortened: as §1

[13] = tested on: MRK-nu-1 (Breast Carcinoma)
Procedure, shortened: as §1

DK-MG (Glioblastoma) = tested on: DK-MG (Glioblastoma)
Procedure, shortened: as §1

[14] = tested on: NCI-H2023 (Non-Small Cell Lung Carcinoma)
Procedure, shortened: as §1

[15] = tested on: NTERA-2-cl-D1 (Other Solid Carcinomas)
Procedure, shortened: as §1

[16] = tested on: HT-3 (Cervical Carcinoma)
Procedure, shortened: as §1

[17] = tested on: JURL-MK1 (Chronic Myelogenous Leukemia)
Procedure, shortened: as §1

C32 (Melanoma) = tested on: C32 (Melanoma)
Procedure, shortened: as §1

Structure (SMILES) | combination Emax [1] | combination Emax [2] | combination Emax [3] | combination Emax [4] | combination Emax [5] | combination Emax [6] | combination Emax [7] | combination Emax (GCIY (Gastric Carcinoma)) | combination Emax [8] | combination Emax [9] | combination Emax [10] | combination Emax [11] | combination Emax [12] | combination Emax [13] | combination Emax (DK-MG (Glioblastoma)) | combination Emax [14] | combination Emax [15] | combination Emax [16] | combination Emax [17] | combination Emax (C32 (Melanoma))
CC1(C)CCC(CN2CCN(c3ccc(C(=O)NS(=O)(=O)c4ccc(NCC5CCOCC5)c([N+](=O)[O-])c4)c(Oc4cnc5[nH]ccc5c4)c3)CC2)=C(c2ccc(Cl)cc2)C1 [Venetoclax] + Cc1cc2ncnn2cc1Nc1ncc2c(n1)n(C1CCOCC1)c(=O)n2C [AZD7648] (first compound max 1 µM, 7x7, partner max 10 µM) | 0.967 | 0.327 | 0.234 | 0.539 | 0.278 | 0.59 | 0.12 | 0.558 | 1 | 0.867 | 0.47 | 0.392 | 0.243 | 0.523 | 0.265 | 0.392 | 0.743 | 0.135 | 0.356 | 0.396
CC(=O)c1c(C)c2cnc(Nc3ccc(N4CCNCC4)cn3)nc2n(C2CCCC2)c1=O [Palbociclib] + Cc1c2c(nn1C)CSCc1cc(n(C)n1)CSc1cc(c3ccccc3c1)OCCCc1c(C(=O)O)n(C)c3c-2c(Cl)ccc13 [AZD5991] (first compound max 10 µM, 7x7, partner max 1 µM) | 0.266 | 0.992 | 0.457 | 0.815 | 0.229 | 0.65 | 0.179 | 0.2 | 0.841 | 0.994 | 0.954 | 0.321 | 0.249 | 0.993 | 0.366 | 0.234 | 0.509 | 0.693 | 1 | 0.254
COc1cccc(OCCCN)c1-c1cc(Nc2cnc(C#N)cn2)n[nH]1 [Prexasertib] + CN(C)CCCOc1ccc(-c2ccc3ncc4c(c3c2)n(C2CCOCC2)c(=O)n4C)cn1 [AZD0156] (first compound max 1 µM, 7x7, partner max 1 µM) | 0.918 | 0.976 | 0.951 | 0.788 | 0.582 | 0.685 | 0.462 | 0.853 | 1 | 0.992 | 1 | 0.291 | 0.327 | 0.81 | 0.32 | 0.806 | 0.227 | 0.453 | 1 | 0.774
Cc1c2c(nn1C)CSCc1cc(n(C)n1)CSc1cc(c3ccccc3c1)OCCCc1c(C(=O)O)n(C)c3c-2c(Cl)ccc13 [AZD5991] + CCN(CCO)CCCOc1ccc2c(Nc3cc(CC(=O)Nc4cccc(F)c4)[nH]n3)ncnc2c1 [AZD2811] (first compound max 1 µM, 7x7, partner max 1 µM) | 0.289 | 1 | 0.285 | 0.346 | 0.277 | 1 | 0.754 | 0.449 | 0.991 | 1 | 0.976 | 0.485 | 0.288 | 1 | 0.839 | 0.333 | 0.821 | 0.907 | 0.901 | 0.445
CCN(CCO)CCCOc1ccc2c(Nc3cc(CC(=O)Nc4cccc(F)c4)[nH]n3)ncnc2c1 [AZD2811] + C[C@@H]1COCCN1C2=NC(=NC(=C2)C3(CC3)[S@](=N)(=O)C)C4=C5C=CNC5=NC=C4 [AZD6738] (first compound max 1 µM, 7x7, partner max 10 µM) | 0.901 | 0.566 | 0.969 | 0.646 | 0.279 | 0.804 | 0.431 | 0.851 | 1 | 0.807 | 1 | 0.483 | 0.384 | 0.732 | 0.308 | 0.818 | 0.784 | 0.694 | 1 | 0.613
CC1(C)CCC(CN2CCN(c3ccc(C(=O)NS(=O)(=O)c4ccc(NCC5CCOCC5)c([N+](=O)[O-])c4)c(Oc4cnc5[nH]ccc5c4)c3)CC2)=C(c2ccc(Cl)cc2)C1 [Venetoclax] + C1CN(CCC1(C(=O)N[C@@H](CCO)C2=CC=C(C=C2)Cl)N)C3=NC=NC4=C3C=CN4 [Capivasertib] (first compound max 1 µM, 7x7, partner max 3 µM) | 0.996 | 0.305 | 0.157 | 0.738 | 0.362 | 0.679 | 0.128 | 0.442 | 1 | 0.867 | 0.646 | 0.562 | 0.393 | 0.288 | 0.301 | 0.424 | 0.692 | 0.0784 | 0.291 | 0.356
CN(CCO)CC[C@H](CSc1ccccc1)Nc1ccc(S(=O)(=O)NC(=O)c2ccc(N3CCC([C@@H](O)c4ccccc4-c4ccc(Cl)cc4)CC3)cc2)cc1S(=O)(=O)C(F)(F)F [AZD4320] + C[C@@H](Nc1cc(F)cc(F)c1)c1cc(C(=O)N(C)C)cc2c(=O)cc(N3CCOCC3)oc12 [AZD8186] (first compound max 1 µM, 7x7, partner max 3 µM) | 0.999 | 0.497 | 1 | 0.832 | 0.461 | 0.962 | 0.553 | 0.719 | 1 | 0.249 | 0.807 | 0.421 | 0.453 | 0.589 | 0.557 | 0.351 | 0.976 | 0.237 | 0.871 | 0.681
COc1nnc2ccc(N3CCC(c4ccc(OCCN5CCN(C)C(=O)[C@H]5C)cc4)CC3)nn12 [AZD5153] + Cc1c2c(nn1C)CSCc1cc(n(C)n1)CSc1cc(c3ccccc3c1)OCCCc1c(C(=O)O)n(C)c3c-2c(Cl)ccc13 [AZD5991] (first compound max 1 µM, 7x7, partner max 1 µM) | 0.677 | 1 | 1 | 0.889 | 0.452 | 0.627 | 0.379 | 0.538 | 0.937 | 0.994 | 0.999 | 0.724 | 0.553 | 1 | 0.633 | 0.47 | 0.97 | 0.911 | 0.927 | 0.947
Cc1c2c(nn1C)CSCc1cc(n(C)n1)CSc1cc(c3ccccc3c1)OCCCc1c(C(=O)O)n(C)c3c-2c(Cl)ccc13 [AZD5991] + CC1(C)CCC(CN2CCN(c3ccc(C(=O)NS(=O)(=O)c4ccc(NCC5CCOCC5)c([N+](=O)[O-])c4)c(Oc4cnc5[nH]ccc5c4)c3)CC2)=C(c2ccc(Cl)cc2)C1 [Venetoclax] (first compound max 1 µM, 7x7, partner max 1 µM) | 1 | 1 | 0.175 | 0.469 | 0.23 | 0.954 | 0.151 | 0.343 | 1 | 1 | 0.968 | 0.378 | 0.152 | 1 | 0.613 | 0.205 | 0.916 | 0.597 | 0.695 | 0.626
Cc1c2c(nn1C)CSCc1cc(n(C)n1)CSc1cc(c3ccccc3c1)OCCCc1c(C(=O)O)n(C)c3c-2c(Cl)ccc13 [AZD5991] + CN(C)CCCOc1ccc(-c2ccc3ncc4c(c3c2)n(C2CCOCC2)c(=O)n4C)cn1 [AZD0156] (first compound max 1 µM, 7x7, partner max 1 µM) | 0.313 | 1 | 0.203 | 0.606 | 0.288 | 0.984 | 0.182 | 0.465 | 0.565 | 1 | 0.929 | 0.599 | 0.209 | 1 | 0.754 | 0.426 | 0.589 | 0.479 | 0.734 | 0.24
NC1(C(=O)N[C@@H](CCO)c2ccc(Cl)cc2)CCN(c2ncnc3[nH]ccc23)CC1 [Capivasertib] + Cn1cnc2c(F)c(Nc3ccc(Br)cc3Cl)c(C(=O)NOCCO)cc21 [Selumetinib] (first compound max 10 µM, 7x7, partner max 10 µM) | 0.0522 | 0.358 | 0.926 | 0.882 | 0.569 | 0.7 | 0.584 | 0.512 | 0.468 | 0.605 | 0.77 | 0.829 | 0.957 | 0.4 | 0.621 | 0.369 | 0.321 | 0.281 | 1 | 1
NC1(C(=O)N[C@@H](CCO)c2ccc(Cl)cc2)CCN(c2ncnc3[nH]ccc23)CC1 [Capivasertib] + COc1nnc2ccc(N3CCC(c4ccc(OCCN5CCN(C)C(=O)[C@H]5C)cc4)CC3)nn12 [AZD5153] (first compound max 10 µM, 7x7, partner max 1 µM) | 0.387 | 0.921 | 1 | 0.804 | 0.405 | 0.71 | 0.498 | 0.735 | 0.867 | 0.879 | 0.654 | 0.652 | 0.571 | 0.587 | 0.611 | 0.362 | 0.564 | 0.308 | 0.993 | 0.687
